Measured values taken from US10278942B2 (PELOTON THERAPEUTICS, INC., priority 2015, dated 2019).
Like-named read-outs stand apart in the source and are kept apart here.

Tests used:
[1] = target: T1, HIF-2α HIS TAG-PASB Domain (Homo sapiens, UniProt Q99814); experiment: HIF-2α Scintillation Proximity Assay (SPA); type: binding
T1 construct: 100 nM HIF-2α HIS TAG-PASB Domain
Summary of the method: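 IC50 values rest on percent inhibition, where the sample signal is scaled between high and low controls. Wells contain about 100 μL: compound dispensed as 2 μL of DMSO solution, 88 μL protein-probe mix and 10 μL of beads.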

[2] = test system: 786-O cells; experiment: VEGF ELISA Assay; type: cell-based; settings: Homo sapiens, 786-0
Protocol: Each concentration was plated in duplicate. About 20 hours later, medium was removed by suction and each well was supplied with 180 μL of growth medium. About 20 μl freshly-made 10× compound stocks were added to each well. […] The EC50 was calculated by GraphPad Prism using the dose-response-inhibition (four parameter) equation. The cell-seeded plate was then subjected to CellTiter-Glo luminescence cell viability assay (Promega) by adding 50 μL of Celltiter Glo reagent into each well and shaking the plate for 8 minutes at 550 rpm (Thermomixer R, Eppendorf) then the luminescence signal immediately read in a plate reader (3 second delay, 0.5 second/well integration time, Synergy 2 multi Detection Microplate reader).

[3] = test system: 786-O-Hif-Luc cells; experiment: Luciferase Assay (HIF responsive elements reporter); settings: read-out: Mean Luciferase EC50 (nM), 786-O-Hif-Luc cells
Protocol: A pool of infected cells were then selected against 2 μg/mL of puromycin (P8833, Sigma) for 10 days followed by limited dilution to select single clones. […] Each concentration was tested in triplicate. After about 24 hours, luciferase activity was determined using ONE-Glo Luciferase Assay Reagent (E6110, Promega) following the manufacturer's recommended procedure. EC50 were calculated using Dotmatics software.

[4] = read-out: Scintillation Proximity Assay IC50

T1 sequence (Q99814 240-350 limits assumed): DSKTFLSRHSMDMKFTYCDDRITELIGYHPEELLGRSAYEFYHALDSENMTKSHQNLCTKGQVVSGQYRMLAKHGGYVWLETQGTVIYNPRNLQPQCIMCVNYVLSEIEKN

Row | Compound | IC50 [1, 4] [nM] | EC50 [2] [µM] | EC50 [3] [nM] | IC50 ([1]; Scintillation Proximity Assay IC50 (nM)) [nM]
1 | CS(=O)(=O)c1ccc(OC2CC(F)(F)C2)c2c1[C@H](O)[C@H](F)[C@@H]2F [Compound 577] | < 50 | 0.25 to 1 | 250 to 1000 | 
2 | O=S(=O)(CF)c1ccc(OC2CC(F)(F)C2)c2c1[C@H](O)C(F)(F)[C@@H]2F [Compound 576, (1S,3R)-4-(3,3-difluorocyclobutoxy)-2,2,3-trifluoro-7-((fluoromethyl)sulfonyl)-2,3-dihydro-1H-inden-1-ol] | < 50 | 0.05 to 0.249 | < 50 | 
3 | N#Cc1cncc(Oc2ccc(S(=O)(=O)C(F)(F)F)c3c2C[C@@H](F)[C@H]3O)c1 [Compound 225] | < 50 | 0.05 to 0.249 | < 50 | 
4 | O=S(=O)(c1ccc(OCC2COC2)c2c1[C@H](O)C(F)(F)C2)C(F)(F)F [Compound 713] | < 50 | 0.05 to 0.249 | 50 to 249 | 
5 | CC(C)COc1ccc(S(=O)(=O)C(F)(F)F)c2c1CC(F)(F)[C@H]2O [Compound 709] | < 50 | < 0.05 | < 50 | 
6 | CCCOc1ccc(S(=O)(=O)C(F)(F)F)c2c1CC(F)(F)[C@H]2O [Compound 655] | < 50 | < 0.05 | < 50 | 
7 | O=S1(=O)c2ccc(Oc3cncc(Cl)c3)c(Br)c2[C@@H](O)C1(F)F [Compound 421] | 50 to 249 | 0.05 to 0.249 | 50 to 249 | 
8 | Cc1c(S(=O)(=O)C(F)F)ccc(Oc2cc(F)cc(F)c2)c1C#N [Compound 34] | < 50 | 0.25 to 1 | 250 to 1000 | 
9 | O=S(=O)(c1ccc(Oc2ccc(F)cc2)c2c1[C@H](O)C(F)(F)C2)C(F)(F)F [Compound 230] | < 50 | < 0.05 | < 50 | 
10 | O=S(=O)(c1ccc(OCCF)c2c1[C@H](O)C(F)(F)C2)C(F)(F)F [Compound 706] | 50 to 249 | 0.05 to 0.249 | 50 to 249 | 
11 | CS(=O)(=NC#N)c1ccc(Oc2cc(F)cc(C#N)c2)c2c1[C@H](O)C(F)(F)C2 (stereo partly drawn) [Compound 245] | < 50 | 0.05 to 0.249 | 50 to 249 | 
12 | CS(=O)(=O)c1ccc(Oc2cc(F)cc(C#N)c2)c2c1[C@H](O)C(F)(F)[C@@H]2F [Compound 292, 3-fluoro-5-[(1S,3R)-2,2,3-trifluoro-1-hydroxy-7-methylsulfonyl-indan-4-yl]oxy-benzonitrile] | < 50 | < 0.05 | < 50 | 
13 | O=[N+]([O-])c1c(Oc2cc(F)cc(Cl)c2)ccc(C(F)(F)F)c1Cl [Compound 203] | 50 to 249 | 0.25 to 1 | 250 to 1000 | 
14 | N#Cc1cncc(Oc2ccc3c(c2Br)[C@@H](O)C(F)(F)S3(=O)=O)c1 [Compound 424] | 50 to 249 | 0.25 to 1 | 50 to 249 | 
15 | O=S(=O)(c1ccc(Oc2cc(F)cc(F)c2)c2c1C(O)C(F)(F)C2)C(F)F (stereo not drawn) [Compound 9] | < 50 | < 0.05 | < 50 | 
16 | CS(=O)(=NC#N)c1ccc(Oc2cc(F)cc(C#N)c2)c2c1[C@H](O)C(F)(F)C2 (single isomer, unassigned) [Compound 240] | < 50 | 0.05 to 0.249 | < 50 | 
17 | O=S(=O)(c1ccc(OC2CCOCC2)c2c1[C@H](O)C(F)(F)C2)C(F)F [Compound 783] | < 50 | 0.05 to 0.249 | < 50 | 
18 | O=S(=O)(c1ccc(Nc2cc(F)cc(F)c2)c2c1C(O)C(F)(F)C2)C(F)(F)F (stereo not drawn) [Compound 507] | < 50 | 0.05 to 0.249 | 50 to 249 | 
19 | O=S(=O)(c1ccc(OC2COC2)c2c1[C@H](O)C(F)(F)C2)C(F)(F)F [Compound 784] | 50 to 249 | 0.05 to 0.249 | 50 to 249 | 
20 | O=S(=O)(c1ccc(Oc2cc(F)cc(Cl)c2)c2c1[C@H](O)C(F)(F)C2)C(F)F [Compound 158] |  | < 0.05 | < 50 | < 50
21 | CS(=O)(=O)c1ccc(Oc2cc(F)cc(Br)c2)c2c1[C@H](O)C(F)(F)C2 [Compound 304] | < 50 | 0.05 to 0.249 | < 50 | 

Row | Compound | IC50 [1, 4] [nM] | EC50 [2] [µM] | EC50 [3] [nM] | IC50 ([1]; Scintillation Proximity Assay IC50 (nM)) [nM]
22 | O=S(=O)(c1ccc(OC2CCOCC2)c2c1[C@H](O)C(F)(F)C2)C(F)(F)F [Compound 744] | < 50 | < 0.05 | < 50 | 
23 | Cc1cc(C#N)cc(Oc2ccc(S(=O)(=O)CF)c3c2CC(F)(F)[C@H]3O)c1 [Compound 166] | < 50 | 0.05 to 0.249 | < 50 | 
24 | O=S(=O)(c1ccc(OCC(F)F)c2c1[C@H](O)C(F)(F)C2)C(F)(F)F [Compound 571] | < 50 | < 0.05 | < 50 | 
25 | O=S(=O)(c1ccc(Oc2cc(F)c[n+]([O-])c2)c2c1[C@H](O)C(F)(F)C2)C(F)(F)F [Compound 310] | < 50 | 0.05 to 0.249 | 50 to 249 | 
26 | N#Cc1cc(F)cc(Oc2ccc(S(=O)(=O)C(F)F)c(CO)c2Br)c1 [Compound 80] | < 50 | 0.25 to 1 | 250 to 1000 | 
27 | O=S(=O)(CF)c1ccc(Oc2cc(F)c(F)c(F)c2)c2c1[C@H](O)C(F)(F)C2 [Compound 188] | < 50 | 0.05 to 0.249 | 50 to 249 | 
28 | O=S(=O)(c1ccc(Oc2cc(F)cc(F)c2)c2c1[C@H](O)CC2)C(F)(F)F [Compound 55] | < 50 | < 0.05 | < 50 | 
29 | O=S(=O)(c1ccc(CCO)c2c1C(O)CC2)C(F)(F)F (stereo not drawn) [Compound 495, 4-(2-hydroxyethyl)-7-((trifluoromethyl)sulfonyl)-2,3-dihydro-1H-inden-1-ol] | > 1000 | 0.25 to 1 | > 1000 | 
30 | CS(=O)(=O)c1ccc(O[C@H]2C[C@@H](C#N)C2)c2c1[C@H](O)C(F)(F)[C@@H]2F [Compound 761] | < 50 | 0.05 to 0.249 | 50 to 249 | 
31 | N#Cc1cc(F)cc(Oc2ccc3c(c2Cl)[C@@H](O)C(F)(F)S3(=O)=O)c1 [Compound 431] | < 50 | 0.05 to 0.249 | < 50 | 
32 | O=S(=O)(c1ccc(OC2CCC2)c2c1[C@H](O)C(F)(F)C2)C(F)(F)F [Compound 657] | < 50 | < 0.05 | < 50 | 
33 | O=S(=O)(CF)c1ccc(Oc2cc(F)cc(F)c2)c2c1[C@H](O)C(F)(F)C2 [Compound 64] | < 50 | < 0.05 | < 50 | 
34 | O=S(=O)(c1ccc(Oc2cncc(F)c2)c2c1[C@H](O)C(F)(F)C2)C(F)(F)F [Compound 309] | < 50 | < 0.05 | < 50 | 
35 | CS(=O)(=NC#N)c1ccc(Oc2cc(F)cc(F)c2)c2c1C(O)C(F)(F)C2 (stereo not drawn) [Compound 191] | < 50 | 0.05 to 0.249 | 50 to 249 | 
36 | O=S(=O)(c1ccc(OCC2CC2)c2c1[C@H](O)C(F)(F)C2)C(F)(F)F [Compound 656] | < 50 | < 0.05 | < 50 | 
37 | CS(=O)(=NC#N)c1ccc(Oc2cc(F)cc(C#N)c2)c2c1[C@H](O)C(F)(F)[C@@H]2F (stereo partly drawn) [Compound 316] | < 50 | < 0.05 | < 50 | 
38 | O[C@H]1c2c(C(F)(F)F)ccc(OCC(F)F)c2CC1(F)F [Compound 579] | < 50 | < 0.05 | < 50 | 
39 | N#Cc1cccc(Oc2ccc(S(=O)(=O)C(F)F)c3c2CC(F)(F)[C@H]3O)c1 [Compound 236] | < 50 | < 0.05 | < 50 | 
40 | O=S(=O)(c1ccc(Oc2ccc(F)c(F)c2)c2c1[C@H](O)C(F)(F)C2)C(F)F [Compound 196] | < 50 | < 0.05 | < 50 | 
41 | O=S(=O)(CF)c1ccc(O[C@H]2C[C@H](F)C2)c2c1[C@H](O)C(F)(F)[C@@H]2F [Compound 742] | < 50 | < 0.05 | < 50 | 
